This is an account of results in PubChem BioAssay (NCI).

Test systems include DLD-1 colon; DMS 114 small cell lung; DMS 273 small cell lung; HOP-18 NSCLC; LXFL 529 NSCLC; M19-MEL melanoma; RXF-631 renal; XF 498 CNS; MDA-N; P388 leukemia; P388/ADR leukemia; SN12K1 renal.
Common to all, as to assay: NCI tumour cell line growth inhibition, 48 h

Molecules are shown by their SMILES.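 Dose response: 5 concentrations. Exposure: 48 h. Format: 96-well plates. Endpoint: linear interpolation; highest concentration if not reached. TGI: total growth inhibition.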

With `Cc1c(Cl)ccc2c1NC(=O)C2(O)C(C(=O)c1ccccc1)c1ccccc1` (configuration not stated), the TGI in the assay on DLD-1 colon is more than 100 µM; with DMS 114 small cell lung, 44.2 µM; in the assay with DMS 273 small cell lung, more than 100 µM; in the assay with HOP-18 NSCLC, more than 100 µM; with LXFL 529 NSCLC, more than 100 µM; with M19-MEL melanoma, 30.6 µM. In addition, the values for the TGI in the assay on RXF-631 renal and with XF 498 CNS were more than 100 µM and 96.9 µM, respectively.
For the compound `O=S1c2ccccc2N=C(c2ccc3ccccc3c2)CC1C1=CC=CCC1` (configuration not stated), the TGI is 26 µM in the assay with DLD-1 colon; 33.3 µM in the assay with DMS 114 small cell lung; 41 µM in the assay on DMS 273 small cell lung; more than 100 µM in the assay with HOP-18 NSCLC; 29.7 µM in the assay on LXFL 529 NSCLC; 31.2 µM with M19-MEL melanoma. Moreover, the TGI is 37 µM in the assay with RXF-631 renal and 31.6 µM in the assay on XF 498 CNS.
Take `COC(=O)/C=C1/CCC2[C@@H](C(=O)CC3[C@]2(C)CCC[C@@]3(C)C(=O)OC)C1C` (some centres not stated): the TGI in the assay on DLD-1 colon was 37.1 µM; with DMS 114 small cell lung it was 24.8 µM; in the assay with DMS 273 small cell lung, 29.8 µM; in the assay on HOP-18 NSCLC, 27.5 µM; with LXFL 529 NSCLC, 20.8 µM; in the assay with M19-MEL melanoma, 31.2 µM. The TGI was 30.9 µM with RXF-631 renal and 30.3 µM with XF 498 CNS.
Turning to `CCC(C)(C)C(=O)O[C@H]1C[C@@H](C)C=C2C=C[C@H](C)[C@H](CC[C@@H]3C[C@@H](O)CC(=O)O3)[C@H]21`, the TGI with DLD-1 colon, with DMS 114 small cell lung, in the assay with DMS 273 small cell lung, in the assay with HOP-18 NSCLC, in the assay with LXFL 529 NSCLC and in the assay on M19-MEL melanoma was more than 30 µM each time. The TGI with RXF-631 renal and in the assay on XF 498 CNS was more than 30 µM each time.
In the case of `Cc1ccc(NC(=O)C(=O)C2C(=O)N(c3ccccc3)N=C2N)cc1C` (configuration not stated), the TGI with DLD-1 colon, in the assay with DMS 114 small cell lung, in the assay with DMS 273 small cell lung, in the assay with HOP-18 NSCLC, with LXFL 529 NSCLC and with M19-MEL melanoma was more than 100 µM throughout. The TGI in the assay with RXF-631 renal and with XF 498 CNS was more than 100 µM throughout.
For the compound `[O-]c1c2c(nn1-c1ccccc1)c1ccccc1c[n+]2Cc1ccccc1`, the TGI with DLD-1 colon, with DMS 114 small cell lung, with DMS 273 small cell lung, in the assay with HOP-18 NSCLC, in the assay on LXFL 529 NSCLC and with M19-MEL melanoma was more than 100 µM each time. Moreover, the TGI in the assay with RXF-631 renal and in the assay on XF 498 CNS was more than 100 µM throughout.
Turning to `CS(=O)(=O)NNS(=O)(=O)c1cccc([N+](=O)[O-])c1`, the TGI in the assay with DLD-1 colon, in the assay on DMS 114 small cell lung, in the assay with DMS 273 small cell lung, in the assay on LXFL 529 NSCLC, with M19-MEL melanoma and with RXF-631 renal was more than 100 µM in each case. This compound had a TGI in the assay with XF 498 CNS of more than 100 µM.
For `COC(=O)NC1C(C)OC(OC2C/C=C(/C)C3C=CC4C(OC5CC(OC6CC(O)C(OC7CC(O)C(OC)C(C)O7)C(C)O6)C(O)C(C)O5)C(C)CC(C)C4C3(C)/C(O)=C3\C(=O)OC4(CC(C)C(CO)=CC4/C=C\2C)C3=O)CC1(C)[N+](=O)[O-]` (configuration not stated), the TGI turned out to be 40.4 µM in the assay with DLD-1 colon; 11.5 µM in the assay on DMS 114 small cell lung; 28.9 µM with DMS 273 small cell lung; 31.4 µM in the assay on HOP-18 NSCLC; 9.19 µM in the assay with LXFL 529 NSCLC; 13.1 µM with M19-MEL melanoma. The TGI was 19.5 µM with MDA-N; 17.4 µM in the assay with P388 leukemia; 98.1 µM in the assay with P388/ADR leukemia; 41.7 µM in the assay on RXF-631 renal; 22.6 µM in the assay on SN12K1 renal; 27 µM in the assay on XF 498 CNS.
